Laboratory results as given in patent publication US6770596B1, “Fused tricyclic compounds, process for their preparation, and herbicidal compositions containing them” (Ishihara Sangyo Kaisha Ltd., priority 2002, dated 2004).

Key:
Type in all cases: in vivo
[1] = tested on: redroot pigweed (Amaranthus retroflexus, AMR); assay: Pre-emerge test, redroot pigweed; conditions: 250 g ai/ha, 14 days after application, rating scale 0-100 (0 no damage, 100 complete death)
Outline: (§1)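 Scores at 14 days after treatment use a 0–100 scale, where 0 is no damage and 100 is death of all plants. Treatments were acetone solutions sprayed at 8–1000 g ai/ha onto soil sown one day prior.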

[2] = tested on: velvetleaf (Abutilon theophrasti, ABT); assay: Pre-emerge test, velvetleaf; conditions: 250 g ai/ha, 14 days after application, rating scale 0-100 (0 no damage, 100 complete death)
Outline: as §1

[3] = tested on: sicklepod (Cassia obtusifolia, CAO); assay: Pre-emerge test, sicklepod; conditions: 250 g ai/ha, 14 days after application, rating scale 0-100 (0 no damage, 100 complete death)
Outline: as §1

[4] = tested on: ivyleaf morningglory (Ipomoea hederacea, IPH); assay: Pre-emerge test, ivyleaf morningglory; conditions: 250 g ai/ha, 14 days after application, rating scale 0-100 (0 no damage, 100 complete death)
Outline: as §1

[5] = tested on: lambsquarters (Chenopodium album, CHA); assay: Pre-emerge test, lambsquarters; conditions: 250 g ai/ha, 14 days after application, rating scale 0-100 (0 no damage, 100 complete death)
Outline: as §1

[6] = tested on: common ragweed (Ambrosia artemisiifolia L., AML); assay: Pre-emerge test, common ragweed; conditions: 250 g ai/ha, 14 days after application, rating scale 0-100 (0 no damage, 100 complete death)
Outline: as §1

[7] = tested on: cocklebur (Xanthium strumariunt, XAS); assay: Pre-emerge test, cocklebur; conditions: 250 g ai/ha, 14 days after application, rating scale 0-100 (0 no damage, 100 complete death)
Outline: as §1

[8] = tested on: green foxtail (Setaria viridis, SEV); assay: Pre-emerge test, green foxtail; conditions: 250 g ai/ha, 14 days after application, rating scale 0-100 (0 no damage, 100 complete death)
Outline: as §1

[9] = tested on: barnyardgrass (Echinachloa crus-galli, ECC); assay: Pre-emerge test, barnyardgrass; conditions: 250 g ai/ha, 14 days after application, rating scale 0-100 (0 no damage, 100 complete death)
Outline: as §1

[10] = tested on: johnsongrass (Sorghum halepense, SOH); assay: Pre-emerge test, johnsongrass; conditions: 250 g ai/ha, 14 days after application, rating scale 0-100 (0 no damage, 100 complete death)
Outline: as §1

[11] = tested on: large crabgrass (Digitaria sanguinalis, DIS); assay: Pre-emerge test, large crabgrass; conditions: 250 g ai/ha, 14 days after application, rating scale 0-100 (0 no damage, 100 complete death)
Outline: as §1

[12] = tested on: field corn (Zea mays L., var. Dekalb 535, CORN); assay: Pre-emerge test, crop damage field corn
Outline: (§2)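 Pots (10 cm, sandy loam mix) were seeded one day ahead of spraying. Test materials, dissolved in acetone, went on at 8–1000 g ai/ha in a 187 l/ha spray volume. Damage was scored 14 days later from 0 (none) to 100 (total kill).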

[13] = tested on: soybean (Glycine max L., var. Pella 86, SOY); assay: Pre-emerge test, crop damage soybean
Outline: as §2

[14] = tested on: upland rice (Oryza sp., var.Tebonnet, RICE); assay: Pre-emerge test, crop damage upland rice
Outline: as §2

[15] = tested on: wheat (Triticum aestivum); assay: Pre-emerge test, crop damage wheat
Outline: as §2

[16] = tested on: redroot pigweed (Amaranthus retroflexus, AMR); assay: Post-emerge test, redroot pigweed; conditions: 250 g ai/ha, 14 days after application, rating scale 0-100 (0 no damage, 100 complete death)
Outline: (§3)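 Scores use a 0-100 visual scale, where 100 is complete plant death, rated 14 days post-treatment. Foliar application at 8-1000 g ai/ha, acetone solution at 187 l/ha with 0.25% v/v non-ionic surfactant. Plants grown 8-21 days, typically 2-3 leaf stage.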

[17] = tested on: velvetleaf (Abutilon theophrasti, ABT); assay: Post-emerge test, velvetleaf; conditions: 250 g ai/ha, 14 days after application, rating scale 0-100 (0 no damage, 100 complete death)
Outline: as §3

[18] = tested on: sicklepod (Cassia obtusifolia, CAO); assay: Post-emerge test, sicklepod; conditions: 250 g ai/ha, 14 days after application, rating scale 0-100 (0 no damage, 100 complete death)
Outline: as §3

[19] = tested on: ivyleaf morningglory (Ipomoea hederacea, IPH); assay: Post-emerge test, ivyleaf morningglory; conditions: 250 g ai/ha, 14 days after application, rating scale 0-100 (0 no damage, 100 complete death)
Outline: as §3

[20] = tested on: lambsquarters (Chenopodium album, CHA); assay: Post-emerge test, lambsquarters; conditions: 250 g ai/ha, 14 days after application, rating scale 0-100 (0 no damage, 100 complete death)
Outline: as §3

[21] = tested on: common ragweed (Ambrosia artemisiifolia L., AML); assay: Post-emerge test, common ragweed; conditions: 250 g ai/ha, 14 days after application, rating scale 0-100 (0 no damage, 100 complete death)
Outline: as §3

[22] = tested on: cocklebur (Xanthium strumariunt, XAS); assay: Post-emerge test, cocklebur; conditions: 250 g ai/ha, 14 days after application, rating scale 0-100 (0 no damage, 100 complete death)
Outline: as §3

[23] = tested on: green foxtail (Setaria viridis, SEV); assay: Post-emerge test, green foxtail; conditions: 250 g ai/ha, 14 days after application, rating scale 0-100 (0 no damage, 100 complete death)
Outline: as §3

[24] = tested on: barnyardgrass (Echinachloa crus-galli, ECC); assay: Post-emerge test, barnyardgrass; conditions: 250 g ai/ha, 14 days after application, rating scale 0-100 (0 no damage, 100 complete death)
Outline: as §3

[25] = tested on: johnsongrass (Sorghum halepense, SOH); assay: Post-emerge test, johnsongrass; conditions: 250 g ai/ha, 14 days after application, rating scale 0-100 (0 no damage, 100 complete death)
Outline: as §3

[26] = tested on: large crabgrass (Digitaria sanguinalis, DIS); assay: Post-emerge test, large crabgrass; conditions: 250 g ai/ha, 14 days after application, rating scale 0-100 (0 no damage, 100 complete death)
Outline: as §3

[27] = tested on: field corn (Zea mays L., var. Dekalb 535, CORN); assay: Post-emerge test, crop damage field corn
Outline: as §3

[28] = tested on: soybean (Glycine max L., var. Pella 86, SOY); assay: Post-emerge test, crop damage soybean
Outline: as §3

[29] = tested on: upland rice (Oryza sp., var.Tebonnet, RICE); assay: Post-emerge test, crop damage upland rice
Outline: as §3

[30] = tested on: wheat (Triticum aestivum); assay: Post-emerge test, crop damage wheat
Outline: as §3

[31] = var. Dekalb 535, Zea mays (field corn), in vivo, 14 days
[32] = var. Pella 86, Glycine max (soybean), in vivo, 14 days
[33] = var. Tebonnet, Oryza sp. (upland rice), in vivo, 14 days
[34] = Triticum aestivum (wheat), in vivo, 14 days
[35] = pre-emerge, 250 g ai/ha, 14 days after application, rating scale 0-100 (0 no damage, 100 complete death)
[36] = post-emerge, 250 g ai/ha, 14 days after application, rating scale 0-100 (0 no damage, 100 complete death)

Row | SMILES | Pre-emerge Herbicidal Activity AMR (phytotoxicity rating) [1] | Pre-emerge Herbicidal Activity ABT (phytotoxicity rating) [2] | Pre-emerge Herbicidal Activity CAO (phytotoxicity rating) [3] | Pre-emerge Herbicidal Activity IPH (phytotoxicity rating) [4] | Pre-emerge Herbicidal Activity CHA (phytotoxicity rating) [5] | Pre-emerge Herbicidal Activity AML (phytotoxicity rating) [6] | Pre-emerge Herbicidal Activity XAS (phytotoxicity rating) [7] | Pre-emerge Herbicidal Activity SEV (phytotoxicity rating) [8] | Pre-emerge Herbicidal Activity ECC (phytotoxicity rating) [9] | Pre-emerge Herbicidal Activity SOH (phytotoxicity rating) [10] | Pre-emerge Herbicidal Activity DIS (phytotoxicity rating) [11] | Post-emerge Herbicidal Activity AMR (phytotoxicity rating) [16] | Post-emerge Herbicidal Activity ABT (phytotoxicity rating) [17] | Post-emerge Herbicidal Activity CAO (phytotoxicity rating) [18] | Post-emerge Herbicidal Activity IPH (phytotoxicity rating) [19] | Post-emerge Herbicidal Activity CHA (phytotoxicity rating) [20] | Post-emerge Herbicidal Activity AML (phytotoxicity rating) [21] | Post-emerge Herbicidal Activity XAS (phytotoxicity rating) [22] | Post-emerge Herbicidal Activity SEV (phytotoxicity rating) [23] | Post-emerge Herbicidal Activity ECC (phytotoxicity rating) [24] | further results
1 | Cn1nc(-c2c(F)cc3c4c2NC(=O)C(C)(C)N4C(=O)CO3)c(Cl)c1C(F)(F)F [1-15, 8-[4-Chloro-1-methyl-5-(trifluoromethyl)-1H-pyrazol-3-yl]-5,5-dimethyl-9-fluoro-5H-pyrazino[1,2,3-de]-1,4-benzoxazine-3,6(2H, 7H)-dione] | 100 | 100 | 100 | 100 | 100 | 100 | 100 | 100 | 100 | 100 | 100 | 100 | 100 | 99 | 100 | 100 | 98 | 100 | 99 | 99 | Pre-emerge crop damage CORN (phytotoxicity rating) [12, 31]: 60; Pre-emerge crop damage SOY (phytotoxicity rating) [13, 32]: 50; Pre-emerge crop damage RICE (phytotoxicity rating) [14, 33]: 40; Pre-emerge crop damage WHEAT (phytotoxicity rating) [15, 34]: 90; Post-emerge Herbicidal Activity SOH (phytotoxicity rating) [25]: 55; Post-emerge Herbicidal Activity DIS (phytotoxicity rating) [26]: 50; Post-emerge crop damage CORN (phytotoxicity rating) [27, 31]: 35; Post-emerge crop damage SOY (phytotoxicity rating) [28, 32]: 100; Post-emerge crop damage RICE (phytotoxicity rating) [29, 33]: 80; Post-emerge crop damage WHEAT (phytotoxicity rating) [30, 34]: 50
2 | Cn1nc(-c2c(F)cc3c4c2NC(=O)C(c2ccccc2)N4C(=O)CO3)c(Cl)c1C(F)(F)F (stereo not drawn) [1-21] | 100 | 100 | 60 | 95 | 100 | 98 | 40 | 98 | 75 | 85 | 99 | 95 | 75 | 5 | 75 | 99 | 75 | 80 | 50 | 25 | Pre-emerge crop damage CORN (phytotoxicity rating) [12, 35]: 0; Pre-emerge crop damage SOY (phytotoxicity rating) [13, 35]: 35; Pre-emerge crop damage RICE (phytotoxicity rating) [14, 35]: 0; Pre-emerge crop damage WHEAT (phytotoxicity rating) [15, 35]: 20; Post-emerge Herbicidal Activity SOH (phytotoxicity rating) [25]: 0; Post-emerge Herbicidal Activity DIS (phytotoxicity rating) [26]: 0; Post-emerge crop damage CORN (phytotoxicity rating) [27, 36]: 10; Post-emerge crop damage SOY (phytotoxicity rating) [28, 36]: 25; Post-emerge crop damage RICE (phytotoxicity rating) [29, 36]: 55; Post-emerge crop damage WHEAT (phytotoxicity rating) [30, 36]: 45
